Columns and labels:
dopamine transporters = assay: Autoradiographic binding of [3H]β-CIT to dopamine transporters in juvenile rat brain after neonatal 6-OHDA lesioning; assay type: in vivo; settings: for specific binding of [3H]β-CIT to dopamine transporters, 6-OHDA Lesioned: mean ± SEM
Protocol: (§1) Methods of lesioning neonatal rats with 6-OHDA were carried out as detailed in Zhang et al. (2001). Briefly, on postnatal day 1 (PD 1), male Sprague-Dawley rat pups were randomly assigned to a nursing dam (10/dam). On PD 5, pups receive a subcutaneous injection of 25 mg/kg desipramine hydrochloride to protect noradrenergic neurons, followed in 45 min. by randomly assigned intracisternal injection of vehicle or 6-OHDA hydrobromide (100 μg free base) under hypothermic anesthesia. Pups were returned to nursing dams immediately after the intracranial injections. Locomotor activity was monitored individually for 90 min. in the periadolescent period on PD 25, using a microcomputer controlled infrared photobeam activity monitoring system. Locomotor activity was defined as breaking of consecutive photobeams and the activity accumulated in 5 minute bins. Behavioral testing was conducted in a novel environment (transparent plastic cages containing fresh bedding) within a grid of horizontal infrared beams. Each dose of (1R,5S)-(+)-1-(naphthalen-2-yl)-3-azabicyclo[3.1.0]hexane (1, 3 and 10 mg/kg) or methylphenidate (3 mg/kg) was dissolved in saline and given i.p. immediately prior to testing. The effects of sham versus 6-OHDA lesions on dopamine neurons in rats were quantified as decrements of DA transporters labeled with [31-1]2-(3-carbomethoxy-3-β-[4′-iodophenyl]tropane ([^3H]β-CIT), a selective DA transporter radioligand (Kula et al. 1999). Sections were preincubated (60 min., room temp [RT]) in 50 mM Tris-HCl buffer (pH 7.7) containing 120 mM NaCl and 4 mM MgCl2, then in fresh buffer (60 min) containing 2 nM [3H](3-CIT. Nonspecific binding was defined with 1 μM GBR-12909. Slides were then washed (2×5 min) in ice-cold buffer, dipped in ice-cold water, and air-dried. Radiolabeled slides and calibrated [^3H]standards were exposed to [^3H]sensitive films for 10-14 d at 4° C. Tritium-sensitive Hyperfilms were developed and fixed in Kodak D-19 for 5 min. at RT. Images were quantified with a computer-controlled MCID image analyzer. Brain regions of interest were outlined and their optical density was measured with two sections representing total binding, with two samples representing nonspecific binding. Optical density of sampled regions was measured and the amount of ligand bound within each area was calculated as nCi/mg tissue. Mean values of non-specific binding in each region were subtracted from the mean total binding to determine specific binding, which was converted into fmol/mg of radioligand bound.

[1] = test system: 6-OHDA-lesioned juvenile rats; assay: Locomotor activity of juvenile rats with neonatal 6-OHDA lesions (model of ADHD); assay type: in vivo, rat
Protocol: The behavioral effects of (1R,5S)-(+)-1-(naphthalen-2-yl)-3-azabicyclo[3.1.0]hexane were evaluated in a model of ADHD, which can be simulated in juvenile rates with neonatal 6-hydroxydopamine (6-OHDA) lesions (Davids et al., 2003). In this animal model, the NE neurons are protected from the neurotoxic effects of 6-OHDA by pretreatment with the NE transporter inhibitor desipramine, so the NE system is largely intact and can respond to NE transporter inhibitors (Davids et al., 2002). Furthermore, the 6-OHDA lesions produce learning and memory deficits in learning models including the T maze, and active and passive avoidance tasks (Shaywitz et al., 1978; Wool et al., 1987; Takasuna and Iwasaki, 1996). Performance in these learning and memory models was improved by administration of stimulants (Shaywitz et al., 1978; Wool et al., 1987). Thus, this model incorporates both hyperactivity and learning deficits found in ADHD.
as §1

| SMILES | % Sham Lesion, binding of [3H]β-CIT (dopamine transporters; lateral caudate-putamen) [%] | specific binding of [3H]β-CIT to dopamine transporters, 6-OHDA Lesioned (dopamine transporters; lateral caudate-putamen) [fmol/mg tissue] | % Sham Lesion, binding of [3H]β-CIT (dopamine transporters; medial caudate-putamen) [%] | specific binding of [3H]β-CIT to dopamine transporters, 6-OHDA Lesioned (dopamine transporters; medial caudate-putamen) [fmol/mg tissue] | % Sham Lesion, binding of [3H]β-CIT (dopamine transporters; nucleus accumbens septi) [%] | specific binding of [3H]β-CIT to dopamine transporters, 6-OHDA Lesioned (dopamine transporters; nucleus accumbens septi) [fmol/mg tissue] | cumulative locomotor score ([1]; 6-OHDA-lesioned rats, PD 25, 90 minute testing period) | fold difference of cumulative locomotor score versus sham-lesioned rats ([1]; PD 25, 90 minute testing period, p<0.001) [fold] | locomotor activity (FIGS. 7A and 7B) ([1]; 6-OHDA-lesioned juvenile rats at PD25, p<0.05 versus vehicle) | time over which locomotor activity was significantly attenuated ([1]; methylphenidate 3 mg/kg i.p., PD 25, 90 min test) [min] |
| --- | --- | --- | --- | --- | --- | --- | --- | --- | --- | --- |
| NCCc1cc(O)c(O)cc1O [6-OHDA, 6-hydroxydopamine] | 25.7 | 30.9 ± 2.4 | 22.2 | 24.9 ± 3.5 | 32.2 | 22.8 ± 1.8 | 2758±3.0 | 9 |  |  |
| COC(=O)C(c1ccccc1)C1CCCCN1 (stereo not shown) [methylphenidate, reference compound] |  |  |  |  |  |  |  |  | reduced locomotor activity | 90 |

— patent US12042481B2, “Use of (1R,5S)-(+)-1-(naphthalen-2-yl)-3-azabicyclo[3.1.0]hexane in the treatment of conditions affected by monoamine neurotransmitters” (priority 2011, dated 2024)
